Test system: SH-Ratte
Assay: Blood pressure lowering in conscious spontaneously hypertensive rats (tail cuff, oral dosing)
Assay type: in vivo
Settings: Rattus norvegicus; SH-Ratte: Blutdrucksenkung >15 mm; intragastral ("oral") in Tylosesuspension; read-out: Grenzdosis
Text: Die Substanzen wurden an der wachen Ratte auf ihre blutdrucksenkende Wirkung hin untersucht. An wachen Ratten mit genetisch bedingtem Hochdruck ("spontan hypertone Ratten" des Okamoto-Stammes) wird der arterielle Blutdruck mit der "Schwanz-Manchette" in definierten Zeitabständen nach Substanzgabe unblutig gemessen. Die zu prüfenden Substanzen werden aufgeschwemmt in einer Tylosesuspension intragastral ("oral") per Schlundsonde in verschiedenen Dosen appliziert. Die erfindungsgemäßen Verbindungen senken den arteriellen Blutdruck der Hochdruckratten in klinisch relevanter Dosierung.

Compound | minimal effective dose
COC(=O)C1=C(C)NC(C)=C(C(=O)OCCOC(=O)c2ccccc2OC(C)=O)C1c1ccccc1C(F)(F)F (stereo not drawn) [Beispiel 1, 5-[2-(2-Acetoxybenzoyloxy)ethoxycarbonyl]-2,6-dimethyl-4-(2-trifluormethylphenyl)-1,4-dihydropyridin-3-carbonsäuremethylester] | 10 mg/kg
CC(=O)Oc1ccccc1C(=O)OCCOC(=O)C1=C(C)NC(C)=C(C(=O)OC(C)C)C1c1ccccc1[N+](=O)[O-] (stereo not drawn) [Beispiel 2] | 30 mg/kg
CC(=O)Oc1ccccc1C(=O)OCCOC(=O)C1=C(C)NC(C)=C(C(=O)OC(C)C)C1c1ccccc1C(F)(F)F (stereo not drawn) [Beispiel 3] | 10 mg/kg
CC(=O)Oc1ccccc1C(=O)OCCOC(=O)C1=C(C)NC(C)=C(C(=O)OC(C)C)C1c1ccccc1Cl (stereo not drawn) [Beispiel 4] | 30 mg/kg
CCOC(=O)C1=C(C)NC(C)=C(C(=O)OCCOC(=O)c2ccccc2OC(C)=O)C1c1ccccc1C(F)(F)F (stereo not drawn) [Beispiel 5, 5-[2-(2-Acetoxybenzoyloxy)ethoxycarbonyl]-2,6-dimethyl-4-(2-trifluormethylphenyl)-1,4-dihydropyridin-3-carbonsäureethylester] | 10 mg/kg
COC(=O)C1=C(C)NC(C)=C(C(=O)OCCOC(=O)c2ccccc2OC(C)=O)C1c1cccc(Cl)c1Cl (stereo not drawn) [Beispiel 6, 5-[2-(2-Acetoxybenzoyloxy)ethoxycarbonyl]-2,6-dimethyl-4-(2,3-dichlorphenyl)-1,4-dihydropyridin-3-carbonsäuremethylester] | 3 mg/kg
